Reference: patent publication US20210069249A1, “METHODS AND COMPOSITIONS OF CYTOTOXIC T CELL DEPLETION” (CRISPR THERAPEUTICS AG, priority 2018, published 2021)

Tests used:
[1] = system: TCR and CD3 expression in CD8+ and CD3+ T cells; assay: TCR and CD3 expression by flow cytometry after TRAC editing; format: cell-based, human; details: day seven post-editing
[2] = system: primary human CD8+ or CD3+ T cells; assay: Cell viability and total cell counts after Cas9/gRNA RNP editing; details: day two post-editing
TRAC gene = assay: On-target cleavage efficiency (INDEL, TIDES protocol) of TRAC gRNAs; details: day two post-editing, 2 independent experiments
exon 6 of the IL2RG gene = assay: On-target cleavage efficiency (INDEL, TIDES protocol) of IL2RG gRNAs; format: cell-based; details: primary human CD3+ T cells; one day post-editing; 3 independent experiments
[3] = system: off-target sites in primary human CD3+ cells; assay: GUIDE-seq off-target analysis of IL2RG gRNAs; format: cell-based; details: for On-Target Read Count / on-target/off-target profile (GUIDE-seq) / GUIDE-seq Off-Targets / Present in Multiple Replicates: CD3+ T cells; for on-target/off-target profile (GUIDE-seq): multiple independent cell sample replicates; for GUIDE-seq Off-Targets: number of sites; for Present in Multiple Replicates: off-target sites found in at least 2 cell sample replicates;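 on all read-outs here: Cas9 RNP plus double-stranded oligonucleotide nucleofected into CD3+ T cells, capture sites found by sequencing, sites also seen in RNP-free control cells discarded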

TRAC 2: sgRNA targeting TRAC, spacer 5′-AGAGCAACAGTGCTGTGGCC-3′ (spacer only, sgRNA scaffold lacks entry, chemistry not fully specified)
CD3+ cells (%) ([1]; CD3+ T cells): 43.17% | TCR+ cells (%) ([1]; CD3+ T cells): 8.63% | CD3+ cells (%) ([1]; CD8+ T cells): 24.34% | TCR+ cells (%) ([1]; CD8+ T cells): 8.1% | Cell count ([2]; CD3+ T cells): 7.77E+05 | Cell count ([2]; CD8+ T cells): 7.84E+05 | INDEL Frequency (%) (TRAC gene; CD3+ T cells): 53.85% | INDEL Frequency (%) (TRAC gene; CD8+ T cells): 59.5%

GC1: sgRNA targeting IL2RG exon 6, spacer 5′-ACCAGTGCCTGGCATGTAGT-3′ (spacer only, sgRNA scaffold lacks entry, further chemistry not given here)
Average INDEL Frequency (%) (exon 6 of the IL2RG gene): 46.43%

GC2: sgRNA targeting IL2RG exon 6, spacer 5′-CCAGTGCCTGGCATGTAGTA-3′ (spacer only, sgRNA scaffold lacks entry, further chemistry not given here)
Average INDEL Frequency (%) (exon 6 of the IL2RG gene): 74.67%

GC13: sgRNA targeting IL2RG exon 6, spacer 5′-GCTTCCAATGCAAACAGGAA-3′ (spacer only, sgRNA scaffold lacks entry, further chemistry not given here)
Average INDEL Frequency (%) (exon 6 of the IL2RG gene): 35.60%

GC8: sgRNA targeting IL2RG exon 6, spacer 5′-GGTTATCTCTGTTGGCTCCA-3′ (spacer only, sgRNA scaffold lacks entry, further chemistry not given here)
Average INDEL Frequency (%) (exon 6 of the IL2RG gene): 66.40% | On-Target Read Count [3]: 4348 | on-target/off-target profile (GUIDE-seq) [3]: generally favorable | GUIDE-seq Off-Targets [3]: 930 | Present in Multiple Replicates [3]: 3 | Off-Target/On-Target ([3]; site chr1 125180094, Intergenic): 1.54% | Off-Target/On-Target ([3]; site chr16 46390807, Intergenic): 0.14% | Off-Target/On-Target ([3]; site chr16 46399022, Intergenic): 0.46%

TRAC 2: sgRNA targeting TRAC, spacer 5′-AGAGCAACAGTGCTGTGGCC-3′ (spacer only; sgRNA scaffold lacks entry; TRAC gRNA spacer, TRAC 2)
Cell Viability (%) ([2]; CD3+ T cells): 80% | Cell Viability (%) ([2]; CD8+ T cells): 88.5%

GC10: sgRNA targeting IL2RG exon 6, spacer 5′-AAGGCTGATAATCAATCCCA-3′ (spacer only, sgRNA scaffold lacks entry, further chemistry not given here)
Average INDEL Frequency (%) (exon 6 of the IL2RG gene): 71.77% | On-Target Read Count [3]: 5384 | on-target/off-target profile (GUIDE-seq) [3]: generally favorable | GUIDE-seq Off-Targets [3]: 1227 | Present in Multiple Replicates [3]: 14 | Off-Target/On-Target ([3]; site chr3 108840645, Intronic, TRAT1): 3.05% | Off-Target/On-Target ([3]; site chr5 159185831, Intronic, RNF145): 0.20% | Off-Target/On-Target ([3]; site chr12 62289934, Intronic, USP15): 0.48% | Off-Target/On-Target ([3]; site chr21 17142630, Intergenic): 0.71% | Off-Target/On-Target ([3]; site chrUn_KI270438v1 104161): 1.60% | Off-Target/On-Target ([3]; site chrUn_KI270438v1 104938): 0.28% | Off-Target/On-Target ([3]; site chrUn_KI270438v1 109447): 0.39% | Off-Target/On-Target ([3]; site chrUn_KI270467v1 2297): 0.17% | Off-Target/On-Target ([3]; site chrUn_KI270467v1 2459): 0.17% | Off-Target/On-Target ([3]; site chrUn_KI270467v1 2622): 0.48% | Off-Target/On-Target ([3]; site chrUn_KI270467v1 2830): 0.13% | Off-Target/On-Target ([3]; site chrUn_KI270467v1 3365): 0.26%

GC6: sgRNA targeting IL2RG exon 6, spacer 5′-CCTGTTTGCATTGGAAGCCG-3′ (spacer only, sgRNA scaffold lacks entry, further chemistry not given here)
Average INDEL Frequency (%) (exon 6 of the IL2RG gene): 14.80%

GC14: sgRNA targeting IL2RG exon 6, spacer 5′-TAGAAAAAAGAAAAGCAAAG-3′ (spacer only, sgRNA scaffold lacks entry, further chemistry not given here)
Average INDEL Frequency (%) (exon 6 of the IL2RG gene): 28.23%

GC11: sgRNA targeting IL2RG exon 6, spacer 5′-GGAGCCAACAGAGATAACCA-3′ (spacer only, sgRNA scaffold lacks entry, further chemistry not given here)
Average INDEL Frequency (%) (exon 6 of the IL2RG gene): 15.60%

GC12: sgRNA targeting IL2RG exon 6, spacer 5′-CCACGGCTTCCAATGCAAAC-3′ (spacer only, sgRNA scaffold lacks entry, further chemistry not given here)
Average INDEL Frequency (%) (exon 6 of the IL2RG gene): 58.43% | On-Target Read Count [3]: 2352 | on-target/off-target profile (GUIDE-seq) [3]: generally favorable | GUIDE-seq Off-Targets [3]: 1368 | Present in Multiple Replicates [3]: 4 | Off-Target/On-Target ([3]; site chr13 18212170, Intronic, FAM230C): 1.02% | Off-Target/On-Target ([3]; site chrUn_KI270467v1 2459): 0.77% | Off-Target/On-Target ([3]; site chrUn_KI270467v1 2660): 0.34% | Off-Target/On-Target ([3]; site chrUn_KI270590v1 2621): 0.38%

GC4: sgRNA targeting IL2RG exon 6, spacer 5′-GTAGGGGCACAACAAATATA-3′ (spacer only, sgRNA scaffold lacks entry, further chemistry not given here)
Average INDEL Frequency (%) (exon 6 of the IL2RG gene): 41.07%

GC3: sgRNA targeting IL2RG exon 6, spacer 5′-CAGTGCCTGGCATGTAGTAG-3′ (spacer only, sgRNA scaffold lacks entry, further chemistry not given here)
Average INDEL Frequency (%) (exon 6 of the IL2RG gene): 77.53%

GC7: sgRNA targeting IL2RG exon 6, spacer 5′-GAAGCCGTGGTTATCTCTGT-3′ (spacer only, sgRNA scaffold lacks entry, further chemistry not given here)
Average INDEL Frequency (%) (exon 6 of the IL2RG gene): 31.07%

GC5: sgRNA targeting IL2RG exon 6, spacer 5′-GAATCCTTTCCTGTTTGCAT-3′ (spacer only, sgRNA scaffold lacks entry, further chemistry not given here)
Average INDEL Frequency (%) (exon 6 of the IL2RG gene): 13.03%

GC15: sgRNA targeting IL2RG exon 6, spacer 5′-TTGTGCCCCTACTACATGCC-3′ (spacer only, sgRNA scaffold lacks entry, further chemistry not given here)
Average INDEL Frequency (%) (exon 6 of the IL2RG gene): 46.77%

GC9: sgRNA targeting IL2RG exon 6, spacer 5′-GTTATCTCTGTTGGCTCCAT-3′ (spacer only, sgRNA scaffold lacks entry, further chemistry not given here)
Average INDEL Frequency (%) (exon 6 of the IL2RG gene): 31.37%
